Drawing on US10414731B2, “Substituted oxopyridine derivatives” (priority 2014, dated 2019), this text covers IC50 for 16 molecules.

Each structure is given as a SMILES string.

In one test the target is human factor XIa (Homo sapiens (Human), UniProt P03951). The test is described as follows: Measurement of FXIa inhibition (fluorogenic peptide substrate). The format is biochemical. The note with it: factor XIa from Kordia, substrate Boc-Glu(OBzl)-Ala-Arg-AMC, 22° C., 30 min. The method, then:
The factor XIa inhibition of the substances according to the invention is determined using a biochemical test system which utilizes the reaction of a peptidic factor XIa substrate to determine the enzymatic activity of human factor XIa. Here, factor XIa cleaves from the peptic factor XIa substrate the C-terminal aminomethylcoumarin (AMC), the fluorescence of which is measured. The determinations are carried out in microtitre plates.
1 μl of the diluted substance solutions is placed into each of the wells of white microtitre plates from Greiner (384 wells). […] After […] of incubation, the enzyme reaction is started by addition of 20 μl of the factor XIa substrate Boc-Glu(OBz1)-Ala-Arg-AMC dissolved in assay buffer (10 μM in assay buffer) from Bachem, the mixture is incubated at room temperature (22° C.) for 30 min and fluorescence is then measured (excitation: 360 nm, emission: 460 nm). The measured emissions of the test batches with test substance are compared to those of control batches without test substance (only dimethyl sulphoxide instead of test substance in dimethyl sulphoxide), and IC50 values are calculated from the concentration/activity relationships.

A further test concerns the target human plasma kallikrein (Homo sapiens (Human), UniProt P03952). Nature of the test: Determination of the plasma kallikrein activity (fluorogenic peptide substrate). The note with it: plasma kallikrein from Kordia, substrate H-Pro-Phe-Arg-AMC, 22° C. The test is classed as biochemical. The method, then: To determine the plasma kallikrein inhibition of the substances according to the invention, a biochemical test system is used which utilizes the reaction of a peptidic plasma kallikrein substrate to determine the enzymatic activity of human plasma kallikrein. Here, plasma kallikrein cleaves from the peptic plasma kallikrein substrate the C-terminal aminomethylcoumarin (AMC), the fluorescence of which is measured. The determinations are carried out in microtitre plates.
Test substances are dissolved in dimethyl sulphoxide and serially diluted in dimethyl sulphoxide (3000 μM to 0.0078 μM; resulting final concentrations in the test: 50 μM to 0.00013 μM). 1 μl of the diluted substance solutions is placed into each of the wells of white microtitre plates from Greiner (384 wells). 20 μl of assay buffer (50 mM Tris/HCl pH 7.4; 100 mM sodium chloride solution; 5 mM calcium chloride solution; 0.1% of bovine serum albumin) and 20 μl of plasma kallikrein from Kordia (0.6 nM in assay buffer) are then added successively. After […] of incubation, the enzyme reaction is started by addition of 20 μl of the substrate H-Pro-Phe-Arg-AMC dissolved in assay buffer (10 μM in assay buffer) from Bachem, the mixture is incubated at room temperature (22° C.) for […] and fluorescence is then measured (excitation: 360 nm, emission: 460 nm). The measured emissions of the test batches with test substance are compared to those of control batches without test substance (only dimethyl sulphoxide instead of test substance in dimethyl sulphoxide), and IC50 values are calculated from the concentration/activity relationships.

Sequence of human factor XIa (P03951 whole entry, looked up): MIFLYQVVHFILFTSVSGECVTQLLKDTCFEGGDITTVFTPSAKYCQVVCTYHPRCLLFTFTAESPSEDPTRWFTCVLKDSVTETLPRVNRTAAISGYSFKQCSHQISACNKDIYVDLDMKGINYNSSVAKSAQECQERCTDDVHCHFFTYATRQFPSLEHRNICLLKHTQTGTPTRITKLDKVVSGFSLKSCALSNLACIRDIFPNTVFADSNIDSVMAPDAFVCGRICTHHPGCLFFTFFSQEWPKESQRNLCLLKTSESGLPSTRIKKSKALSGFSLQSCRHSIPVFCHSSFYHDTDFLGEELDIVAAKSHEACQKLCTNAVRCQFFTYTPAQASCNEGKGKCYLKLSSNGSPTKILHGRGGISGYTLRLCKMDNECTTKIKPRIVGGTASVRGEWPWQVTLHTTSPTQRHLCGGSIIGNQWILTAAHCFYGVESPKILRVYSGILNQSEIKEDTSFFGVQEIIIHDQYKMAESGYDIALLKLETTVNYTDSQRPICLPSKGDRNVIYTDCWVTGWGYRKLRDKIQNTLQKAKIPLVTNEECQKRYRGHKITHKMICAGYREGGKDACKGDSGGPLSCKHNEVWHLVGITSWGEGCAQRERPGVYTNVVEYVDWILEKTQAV
Sequence of human factor XIa (P03951 whole entry partner, looked up): as the sequence (P03951 whole entry, looked up) above
Sequence of human plasma kallikrein (P03952 whole entry, looked up): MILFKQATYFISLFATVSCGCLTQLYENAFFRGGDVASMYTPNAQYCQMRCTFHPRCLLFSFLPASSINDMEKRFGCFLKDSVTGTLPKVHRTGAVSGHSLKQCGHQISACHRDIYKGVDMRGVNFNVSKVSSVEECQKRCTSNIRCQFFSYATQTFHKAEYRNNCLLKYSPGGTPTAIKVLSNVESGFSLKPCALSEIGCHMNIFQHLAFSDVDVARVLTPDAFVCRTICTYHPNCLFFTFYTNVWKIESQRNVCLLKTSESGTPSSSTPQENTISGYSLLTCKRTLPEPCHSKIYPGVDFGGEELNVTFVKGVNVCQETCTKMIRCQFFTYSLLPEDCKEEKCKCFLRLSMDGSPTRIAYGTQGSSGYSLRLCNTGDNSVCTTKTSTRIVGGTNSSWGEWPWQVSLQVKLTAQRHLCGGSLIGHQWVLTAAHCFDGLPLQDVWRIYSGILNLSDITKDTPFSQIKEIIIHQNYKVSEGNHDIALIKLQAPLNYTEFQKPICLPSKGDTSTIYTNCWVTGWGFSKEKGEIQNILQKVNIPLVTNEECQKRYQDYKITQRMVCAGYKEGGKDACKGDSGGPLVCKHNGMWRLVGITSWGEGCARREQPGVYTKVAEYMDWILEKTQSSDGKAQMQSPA
Sequence of human plasma kallikrein (P03952 whole entry partner, looked up): as the sequence (P03952 whole entry, looked up) above

Regarding `COc1cn(C(C[C@@H]2CCCCO2)C(=O)Nc2ccc(C(=O)OC(C)[C@H](N)C(=O)O)cc2)c(=O)cc1-c1cc(Cl)ccc1C#N` (single isomer, unassigned) [Example 1], the figures for the IC50 against human factor XIa and on human plasma kallikrein were 2 nM and 9.1 nM, respectively.

`CCC(C(=O)Nc1ccc(C(=O)OC(C)[C@H](N)C(=O)O)cc1)n1cc(OC)c(-c2cc(Cl)ccc2C#N)cc1=O` (single isomer, unassigned) [Example 2, O-[4-({2-[4-(5-Chloro-2-cyanophenyl)-5-methoxy-2-oxopyridin-1(2H)-yl]butanoyl}amino)-benzoyl]-L-threonine]: the IC50 against human factor XIa stood at 54 nM; against human plasma kallikrein, 93 nM.

In the case of `CCC(C(=O)Nc1ccc(C(=O)OC[C@](C)(N)C(=O)O)cc1)n1cc(OC)c(-c2cc(Cl)ccc2C#N)cc1=O` (single isomer, unassigned) [Example 3, O-[4-({2-[4-(5-Chloro-2-cyanophenyl)-5-methoxy-2-oxopyridin-1(2H)-yl]butanoyl}amino)-benzoyl]-2-methyl-L-serine], the IC50 came out at 82 nM against human factor XIa and 60 nM at human plasma kallikrein.

`CCC(C(=O)Nc1ccc(C(=O)OC[C@H](N)C(=O)O)cc1)n1cc(OC)c(-c2cc(Cl)ccc2C#N)cc1=O` (single isomer, unassigned) [Example 4, O-[4-({2-[4-(5-Chloro-2-cyanophenyl)-5-methoxy-2-oxopyridin-1(2H)-yl]butanoyl}amino)-benzoyl]-L-serine]: the 50% inhibitory concentration (IC50) at human factor XIa was found to be 54 nM; on human plasma kallikrein, 92 nM.

Regarding `CCC(C(=O)Nc1ccc(C(=O)OC[C@H](NC(=O)CN2CCCC2)C(=O)O)cc1)n1cc(OC)c(-c2cc(Cl)ccc2C#N)cc1=O` (single isomer, unassigned) [Example 5, O-[4-({2-[4-(5-Chloro-2-cyanophenyl)-5-methoxy-2-oxopyridin-1(2H)-yl]butanoyl}amino)-benzoyl]-N-(pyrrolidin-1-ylacetyl)-L-serine], the IC50 came to 60 nM on human factor XIa and 35 nM at human plasma kallikrein.

As for `CCC(C(=O)Nc1ccc(C(=O)OC[C@H](NC(=O)C2CCCCN2C)C(=O)O)cc1)n1cc(OC)c(-c2cc(Cl)ccc2C#N)cc1=O` (single isomer, unassigned) [Example 7], the IC50 at human factor XIa is 91 nM; on human plasma kallikrein, 52 nM.

`CCC(C(=O)Nc1ccc(C(=O)OC[C@H](NC(=O)C2(N(C)C)CC2)C(=O)O)cc1)n1cc(OC)c(-c2cc(Cl)ccc2C#N)cc1=O` (single isomer, unassigned) [Example 8, O-[4-({2-[4-(5-Chloro-2-cyanophenyl)-5-methoxy-2-oxopyridin-1(2H)-yl]butanoyl}amino)-benzoyl]-N-{[1-(dimethylamino)cyclopropyl]carbonyl}-L-serine]: the IC50 against human factor XIa was determined as 110 nM; on human plasma kallikrein, 55 nM.

On to `CCC(C(=O)Nc1ccc(C(=O)OC[C@H](NC(=O)[C@H](C(C)C)N(C)C)C(=O)O)cc1)n1cc(OC)c(-c2cc(Cl)ccc2C#N)cc1=O` (single isomer, unassigned) [Example 9, N,N-Dimethyl-L-valyl-O-[4-({2-[4-(5-chloro-2-cyanophenyl)-5-methoxy-2-oxopyridin-1(2H)-yl]butanoyl}amino)benzoyl]-L-serine], for which the results for the IC50 on human factor XIa and against human plasma kallikrein were 63 nM and 51 nM, respectively.

With `CCC(C(=O)Nc1ccc(C(=O)O[C@H]2CCN[C@@H]2C(=O)O)cc1)n1cc(OC)c(-c2cc(Cl)ccc2C#N)cc1=O` (single isomer, unassigned) [Example 10], the IC50 is 14 nM at human factor XIa and 91 nM against human plasma kallikrein.

With `CCC(C(=O)Nc1ccc(C(=O)O[C@H]2CN[C@@H](C(=O)O)C2)cc1)n1cc(OC)c(-c2cc(Cl)ccc2C#N)cc1=O` (single isomer, unassigned) [Example 11], the figures for the IC50 at human factor XIa and against human plasma kallikrein were 260 nM and 280 nM, respectively.

As for `CCC(C(=O)Nc1ccc(C(=O)OC[C@@H](C(=O)O)N2CCCC2)cc1)n1cc(OC)c(-c2cc(Cl)ccc2C#N)cc1=O` (single isomer, unassigned) [Example 12], the IC50 is 26 nM on human factor XIa and 43 nM on human plasma kallikrein.

Take `CCC(C(=O)Nc1ccc(C(=O)OC2CCN(C)CC2)cc1)n1cc(OC)c(-c2cc(Cl)ccc2C#N)cc1=O` (single isomer, unassigned) [Example 13, 1-Methylpiperidin-4-yl 4-({2-[4-(5-chloro-2-cyanophenyl)-5-methoxy-2-oxopyridin-1(2H)-yl]butanoyl}amino)benzoate]: the IC50 on human factor XIa was 230 nM; against human plasma kallikrein, 120 nM.

`CCC(C(=O)Nc1ccc(C(=O)OCCN2CCN(C)CC2)cc1)n1cc(OC)c(-c2cc(Cl)ccc2C#N)cc1=O` (single isomer, unassigned) [Example 14, 2-(4-Methylpiperazin-1-yl)ethyl 4-({2-[4-(5-chloro-2-cyanophenyl)-5-methoxy-2-oxopyridin-1(2H)-yl]butanoyl}amino)benzoate]: half-maximal inhibition against human plasma kallikrein (IC50) required 38 nM.

On to `CCC(C(=O)Nc1ccc(C(=O)OCCC2CCNCC2)cc1)n1cc(OC)c(-c2cc(Cl)ccc2C#N)cc1=O` (single isomer, unassigned) [Example 15, 2-(Piperidin-4-yl)ethyl 4-({2-[4-(5-chloro-2-cyanophenyl)-5-methoxy-2-oxopyridin-1(2H)-yl]butanoyl}amino)benzoate], for which the IC50 against human factor XIa came to 230 nM; at human plasma kallikrein it was 44 nM.

Consider `CCC(C(=O)Nc1ccc(C(=O)OCCN2CCCC2)cc1)n1cc(OC)c(-c2cc(Cl)ccc2C#N)cc1=O` (single isomer, unassigned) [Example 16, 2-(Pyrrolidin-1-yl)ethyl 4-({2-[4-(5-chloro-2-cyanophenyl)-5-methoxy-2-oxopyridin-1(2H)-yl]butanoyl}amino)benzoate], for which the IC50 against human plasma kallikrein was 40 nM.

For the molecule `CCC(C(=O)Nc1ccc(C(=O)OC[C@H](NC(=O)[C@@H]2CCCN2)C(=O)O)cc1)n1cc(OC)c(-c2cc(Cl)ccc2C#N)cc1=O` (stereo partly drawn) [Example 6, Prolyl-O-[4-({2-[4-(5-chloro-2-cyanophenyl)-5-methoxy-2-oxopyridin-1(2H)-yl]butanoyl}amino)-benzoyl]-L-serine], the IC50 on human factor XIa stood at 65 nM; on human plasma kallikrein it was 44 nM.

The IC50 is the concentration at which inhibition is half-maximal. Read a low IC50 as higher potency.
